Data on 11 compounds can be found in patent US6919314B1, “Bioactive whey protein hydrolysate” (New Zealand Dairy Board, priority 1998, dated 2005).

Test [1] deals with T1, rabbit lung ACE (Oryctolagus cuniculus, UniProt P12822).
T1 construct: reagents from Sigma product 305-10) consisting of rabbit lung ACE; purchased Sigma Chemical Corporation, St Louis, Mo., USA 305-10; host or cells: rabbit lung (tissue-derived enzyme)
T1 sequence (P12822 34-1310): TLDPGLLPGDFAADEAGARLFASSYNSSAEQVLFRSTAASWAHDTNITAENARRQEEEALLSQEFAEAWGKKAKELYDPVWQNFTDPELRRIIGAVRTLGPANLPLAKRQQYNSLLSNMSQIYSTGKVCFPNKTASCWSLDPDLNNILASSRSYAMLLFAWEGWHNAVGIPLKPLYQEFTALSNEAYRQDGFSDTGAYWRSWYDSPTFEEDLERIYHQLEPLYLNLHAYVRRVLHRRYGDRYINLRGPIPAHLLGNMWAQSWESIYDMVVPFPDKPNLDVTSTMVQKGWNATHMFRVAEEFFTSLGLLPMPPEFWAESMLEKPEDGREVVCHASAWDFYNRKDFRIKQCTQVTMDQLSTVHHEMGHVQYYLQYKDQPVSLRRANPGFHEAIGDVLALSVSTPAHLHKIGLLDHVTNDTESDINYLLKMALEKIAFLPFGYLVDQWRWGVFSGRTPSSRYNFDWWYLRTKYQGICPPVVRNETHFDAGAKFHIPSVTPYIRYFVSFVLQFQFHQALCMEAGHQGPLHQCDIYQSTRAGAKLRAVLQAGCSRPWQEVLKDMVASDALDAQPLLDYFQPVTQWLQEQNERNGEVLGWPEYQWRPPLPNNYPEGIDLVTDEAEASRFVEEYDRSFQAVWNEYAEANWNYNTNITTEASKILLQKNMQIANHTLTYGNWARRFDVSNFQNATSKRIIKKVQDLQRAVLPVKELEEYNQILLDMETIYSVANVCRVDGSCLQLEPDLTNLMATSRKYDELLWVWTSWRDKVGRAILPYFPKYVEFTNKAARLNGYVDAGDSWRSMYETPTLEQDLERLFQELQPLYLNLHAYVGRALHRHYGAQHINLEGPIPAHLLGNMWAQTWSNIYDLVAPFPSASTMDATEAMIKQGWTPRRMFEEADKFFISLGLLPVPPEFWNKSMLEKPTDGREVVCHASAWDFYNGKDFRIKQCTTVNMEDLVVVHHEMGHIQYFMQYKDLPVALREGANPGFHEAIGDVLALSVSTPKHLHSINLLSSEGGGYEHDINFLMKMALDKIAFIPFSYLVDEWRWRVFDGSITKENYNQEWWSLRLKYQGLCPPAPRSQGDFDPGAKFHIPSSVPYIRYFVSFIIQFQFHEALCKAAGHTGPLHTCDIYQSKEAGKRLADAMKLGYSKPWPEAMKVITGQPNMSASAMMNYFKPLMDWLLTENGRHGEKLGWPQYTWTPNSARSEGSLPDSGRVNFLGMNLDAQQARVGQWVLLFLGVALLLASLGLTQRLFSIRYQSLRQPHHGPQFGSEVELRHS
Kind of test: ACE-I activity using FAPGG as substrate (method of Cushman & Cheung). It is filed as biochemical. As to conditions: colorimetric substrate FAPGG; for IC50: purified peptide, read-out: Activity (IC50 in mg L^−1) (converted). On the procedure: A pH of 7.0 and an enzyme substrate ratio of 0.3% w/w was used for the hydrolysis. The hydrolysate was adjusted to pH 5.0 and heated at 65° C. for 30 min to inactivate the enzyme. […] ACE-I activities are expressed as the amount of material (g/L) needed to reduce the activity of the ACE-I enzyme by 50%.
Each fraction was lyophilised and the amount of peptide material present was measured gravimetrically. […] If a peptide inhibits ACE, the change in absorbance at 340 nm is reduced. […] The eluate was collected using the fraction collector set to collect 0.5 min fractions.
Samples from each fraction were analysed using an analytical reverse-phase HPLC column, and those fractions containing a single, identical peptide were pooled. Each pooled fraction was lyophilised and the weight of the peptide present was determined gravimetrically. The purified peptides were assayed for ACE-I activity as before and the IC50 was calculated for […] individual peptide.

Test [2] deals with spontaneously hypertensive rats (SHR/N). In words: In vivo blood pressure in spontaneously hypertensive rats (tail cuff). The arrangement: species or system rat. As to conditions: 30 mg/Kg bodyweight/day for 8 weeks, compared with the hydrolysate.
From the text: The rat strain has been specifically selected for their development of high blood pressure on maturing, and is used extensively to monitor the effect of blood pressure lowering agents.
Eight week old rats were individually housed in plastic rat cages and kept in temperature controlled facilities throughout the trial. They had unlimited access to water and were fed commercial rat chow ad libitum. The test products were given orally as a single daily dose for 8 weeks during which time changes in blood pressure were monitored.

What is called IC50 is the concentration that gives 50% inhibition.

Marks after values point to notes of the source that are not given here. Ends that are not written are not given here. Peptide text beside a SMILES is read from it.

`CC(C)C[C@H](N)C(=O)N[C@@H](Cc1ccccc1)C(=O)N[C@@H](CO)C(=O)N[C@@H](Cc1c[nH]cn1)C(=O)O` [LFSH, Leu-Phe-Ser-His] (H-LFSH-OH; N-terminus and C-terminus assumed): the IC50 in test [1] is 59.7 µM. With `CSCC[C@H](N)C(=O)N[C@@H](CCCCN)C(=O)NCC(=O)O` [MKG, Met-Lys-Gly] (H-Met-Lys-Gly-OH; N-terminus and C-terminus assumed), the IC50 in test [1] was 71.8 µM. As for `C[C@H](CS)C(=O)N1CCC[C@H]1C(=O)O` [captopril], in test [2], the systolic blood pressure entry is reported as “effect of the hydrolysate was not as great as that of captopril”. ALPMH [ALPMH, Ala-Leu-Pro-Met-His]: the half-maximal inhibitory concentration (IC50) in test [1] is 21.1 µM. Take “ILKEKH [ILKEKH, Ile-Leu-Lys-Glu-Lys-His]”: the IC50 in test [1] is 26.1 µM. Still for that read-out and setting: under LDIQK [LDIQK, Leu-Asp-Ile-Gln-Lys] stands 27.6 µM. The same measure, in the same setting: the value for “LHLPLP [LHLPLP, Leu-His-Leu-Pro-Leu-Pro]” was 10.2 µM; that for LIVTQ [LIVTQ, Leu-Ile-Val-Thr-Gln] was 29.7 µM; that for LVYPFPGPIPNSLPQNIPP was 9.22 µM.

Take “Leu-Phe-Arg-Glu (LFRE; not fully specified; printed: Leu-Phe-Arg-Glu) [LFRQ, origin αs1-CN(136-139)]”: in test [1] (activity measured with that of another peptide of unknown origin), the “Activity (IC50 in mg L^−1)” value is 17^h mg L^−1. In the case of “VTSTAV [VTSTAV, Val-Thr-Ser-Thr-Ala-Val]”, the IC50 in test [1] is 52 µM.
